Entries after “also recorded” stand apart in the source; their conditions may differ. Where a name gives a salt, the structure may show the parent alone. Each block holds one molecule with its values, some of them ahead of it.
Columns and labels:
[1] = system: Ras family GTPases (KRas WT, G12v, G13d, G12a, G12c, G12d, Q61H, Q61L, Q61R; HRas WT, HRas G12v; CDC42 WT, CDC42 L61; Rac1 WT, Rac1 L61); experiment: Multiplex flow cytometry Bodipy FL-GTP binding, compound screen and dose response; settings: for activity or affinity relative to other compounds / selectivity among GTPases (RAS vs non-RAS, individual proteins): multiplex dose response; for class of modulation of Bodipy-GTP binding to Ras family GTPases (pan activator, pan inhibitor, selective inhibitor, mixed activity modulator): multiplex, 10 nM Bodipy FL-GTP, compound 100-0.015 μM, normalized to DMSO
[2] = system: Q61 KRas mutants; experiment: Multiplex flow cytometry Bodipy FL-GTP binding, compound dose response, Q61 mutants; set-up: species or system Human; settings: 10 nM Bodipy FL-GTP
Protocol: Bead Coupling: 4 μm diameter, glutathione-beads (GSH-beads), distinguished by ten different intensities of red fluorescence (varying by several orders of magnitude of emission at 665±10 nm with excitation at 635 nm) were obtained by special order from Duke Scientific Corp. Each polystyrene bead set is supplied at 1.4×10^8 beads/ml with approximately 1.2×10^6 glutathione sites per bead (determined by using GST—green fluorescent protein^42). Prior to incubation with individual GST-GTPase fusion proteins, an appropriate volume of each bead slurry was incubated for 30 minutes at room temperature in assay buffer (20 mM HEPES pH 7.5, 125 μM […], 1 mM MgCl2, 0.5 mM EDTA pH 8.0, 0.01% NP-40) supplemented with 1 mM dithiothreitol and 0.1% BSA. Following this initial incubation, passivated beads were collected by centrifugation and resuspended in assay buffer with individual GST-GTPase fusion proteins at a final concentration of […]. Overnight coupling reactions were carried out at 4° C. with rotation. The amount of each bead type used for coupling and the final volume of the coupling reaction was determined by the experimental protocol. Typically, bead sets are used at a final concentration of 200 bead/μL. To remove unbound GST-GTPase, bead sets were washed twice by centrifugation with ice-cold assay buffer. Individually coated beads were pooled together and kept cold in an appropriate volume before use in binding assays. Bead-bound proteins are sufficiently stable to study secondary interactions between GTPase-GST chimera's and Bodipy-FL GTP^54. Note that an extra GSH-bead set is included that is not protein coupled. This set serves as a ‘scavenger’ for proteins that might dissociate during the binding assay.
For assay screening plates, compound libraries were first dispensed into columns 3-22 using a Labcyte 555 Echo Acoustic Dispenser (San Jose, Calif.) for a final concentration of 10 μM. An equal volume (10 nL) of DMSO was added to the vehicle control wells (column 2). Following the addition of library compounds, 2 μL of assay buffer was added and the plates were mixed before addition of 5 μL of the protein-coupled bead mixtures; 10 μL of assay buffer was added to empty wells in columns 1 and 24. Empty wells serve as wash wells between compound wells and control wells. Plates were mixed and incubated on a rotator for 30 minutes at 4° C. before the addition of 3 μL of Bodipy FL-GTP resulting in a final concentration 10 nM Bodipy FL-GTP. Plates were mixed and incubated for 1 hour at 4° C. Negative controls, containing bead mixtures, Bodipy FL-GTP, and 30 μM unlabeled GTP were assayed separately. Dose response plates were assembled similarly.
Data Acquisition: Assay plates were sampled using the HyperCyt™ high throughput flow cytometry platform (Intellicyt; Albuquerque, N. Mex.). During sampling, the probe moves from well to well and samples 1-2 μL from each well with 0.4 sec transit time in the air before sampling the next well. The resulting sample stream consisting of 384 bubble-separated samples is delivered to an Accuri C6 flow cytometer (BD Biosciences; San Jose, Calif.). Bodipy FL-GTP fluorescence is excited at 488 nm and detected with a 533/30 bandpass filter. […] Gating based on red fluorescence emission distinguishes the separately coated beads. […]

[3] = system: KRas G12v, HRas G12V, Kras Q61R, Rac1 L61, CDC42; experiment: Equilibrium kinetics assays, real-time Bodipy FL-GTP association and dissociation; format: binding, Human; settings: pre-binding at 4° C. or RT in the presence of Mg2+
Protocol: Equilibrium Kinetics Assays: GTPase-coupled beads were prepared as described above and were kept on ice until used. Reactions were performed at room temperature in amber micro-centrifuge tubes in an appropriate volume of assay buffer. Bead mixtures were initially incubated on a rotator with Guanabenz acetate (100 μM) or DMSO for 30 min at 4° C. prior to the addition of 1 nM Bodipy FL-GTP. Real-time binding kinetics was recorded using an Accuri C6 flow cytometer. Binding association was followed for 15 minutes at which time excess GTP was added. Disassociation kinetics was followed for an additional 25 minutes. Data was analyzed using GraphPad Prism software. The association time course was fitted to a two phase exponential association and the dissociation time course was fitted to a two phase decay (exponential).
To determine mechanism of action, we evaluated binding and dissociation of Bodipy FL-GTP in real-time kinetic experiments in the presence of Guanabenz acetate or GTP. Tests included pre-binding of Bodipy-FL GTP at 4′ C. or RT in the presence of Mg^2+.
It was then elected to perform association rate analysis, using the order of addition of reagents used in screening, where guanabenz was added first, incubated at 4° C., then Bodipy FL-GTP was added at room temperature.

Molecule: CN(C)CC/C=C1/c2ccccc2Sc2ccc(Cl)cc21 [Chlorprothixene hydrochloride]
activity or affinity relative to other compounds [1]: most active
selectivity among GTPases (RAS vs non-RAS, individual proteins) [1]: selective for KRas WT, the KRas G12 mutants, and the HRas proteins
class of modulation of Bodipy-GTP binding to Ras family GTPases (pan activator, pan inhibitor, selective inhibitor, mixed activity modulator) ([1]; hydrochloride): selective inhibitors
class of modulation of Bodipy-GTP binding to Ras family GTPases (pan activator, pan inhibitor, selective inhibitor, mixed activity modulator) ([1]; listed as chlorprothixene hydrochloride, hydrochloride): Selective inhibitors
class of modulation of Bodipy-GTP binding to Ras family GTPases (pan activator, pan inhibitor, selective inhibitor, mixed activity modulator) ([1]; listed as chlorproxithene, hydrochloride): selective inhibition
effect on GTP binding to Q61 KRas mutants [2]: not to Q61 KRas mutants

Molecule: Nc1nc2c(ncn2[C@@H]2O[C@H](COP(=O)(O)OP(=O)(O)OP(=O)(O)O)[C@@H](O)[C@H]2O)c(=O)[nH]1 [GTP]
displacement of pre-bound Bodipy FL-GTP [3]: could be displaced by GTP

Molecule: Cc1ccc(Cl)c(Nc2ccccc2C(=O)O)c1Cl [Meclofenamic acid sodium salt monohydrate]
class of modulation of Bodipy-GTP binding to Ras family GTPases (pan activator, pan inhibitor, selective inhibitor, mixed activity modulator) ([1]; listed as meclofenamic acid sodium salt monohydrate, sodium salt monohydrate): Pan activators
class of modulation of Bodipy-GTP binding to Ras family GTPases (pan activator, pan inhibitor, selective inhibitor, mixed activity modulator) ([1]; sodium salt monohydrate): pan activators

Molecule: Cc1cccc(Nc2ccccc2C(=O)O)c1C [Mefenamic Acid]
class of modulation of Bodipy-GTP binding to Ras family GTPases (pan activator, pan inhibitor, selective inhibitor, mixed activity modulator) [1]: pan activators
class of modulation of Bodipy-GTP binding to Ras family GTPases (pan activator, pan inhibitor, selective inhibitor, mixed activity modulator) ([1]; listed as mefenamic acid): Pan activators

Molecule: COc1ccc2cc([C@H](C)C(=O)O)ccc2c1 [Naproxen]
class of modulation of Bodipy-GTP binding to Ras family GTPases (pan activator, pan inhibitor, selective inhibitor, mixed activity modulator) [1]: pan activators
class of modulation of Bodipy-GTP binding to Ras family GTPases (pan activator, pan inhibitor, selective inhibitor, mixed activity modulator) ([1]; listed as naproxen): Pan activators

Molecule: CC(C)Cc1ccc(C(C)C(=O)O)cc1 (stereo not drawn) [S-(+)-Ibuprofen]
activity or affinity relative to other compounds [1]: lower affinity than the mixture

Molecule: Cc1c(Cl)cccc1Nc1ccccc1C(=O)O [Tolfenamic acid]
class of modulation of Bodipy-GTP binding to Ras family GTPases (pan activator, pan inhibitor, selective inhibitor, mixed activity modulator) [1]: pan activators
class of modulation of Bodipy-GTP binding to Ras family GTPases (pan activator, pan inhibitor, selective inhibitor, mixed activity modulator) ([1]; listed as tolfenamic acid): Pan activators

Molecule: A-7 hydrochloride
class of modulation of Bodipy-GTP binding to Ras family GTPases (pan activator, pan inhibitor, selective inhibitor, mixed activity modulator) [1]: pan activators

Second part, led by results:

class of modulation of Bodipy-GTP binding to Ras family GTPases (pan activator, pan inhibitor, selective inhibitor, mixed activity modulator) [1]: PanActivators
Molecule: CC1=CC(=O)c2ccccc2C1=O [Menindione]

class of modulation of Bodipy-GTP binding to Ras family GTPases (pan activator, pan inhibitor, selective inhibitor, mixed activity modulator) ([1]; listed as NSC663284): Selective inhibitors
effect on GTP binding to Q61 KRas mutants [2]: not to Q61 KRas mutants
Molecule: O=C1C(Cl)=C(NCCN2CCOCC2)C(=O)c2ncccc21 [NSC 663284]

class of modulation of Bodipy-GTP binding to Ras family GTPases (pan activator, pan inhibitor, selective inhibitor, mixed activity modulator) [1]: mixed activity modulators
Molecule: Cc1cc(I)ccc1Nc1c(C(=O)NOCC2CC2)cc(F)c(F)c1F [PD 198306]
class of modulation of Bodipy-GTP binding to Ras family GTPases (pan activator, pan inhibitor, selective inhibitor, mixed activity modulator) ([1]; listed as PD198306): mixed activity with mostly activation, but some inhibition as well; also recorded: modulators with mixed activity

class of modulation of Bodipy-GTP binding to Ras family GTPases (pan activator, pan inhibitor, selective inhibitor, mixed activity modulator) [1]: pan inhibitors
Molecule: N#CSc1cc(SC#N)c(N)nc1N [PR-619]

class of modulation of Bodipy-GTP binding to Ras family GTPases (pan activator, pan inhibitor, selective inhibitor, mixed activity modulator) [1]: mixed activity modulators
class of modulation of Bodipy-GTP binding to Ras family GTPases (pan activator, pan inhibitor, selective inhibitor, mixed activity modulator) ([1]; listed as pimethixene maleate): modulators with mixed activity
class of modulation of Bodipy-GTP binding to Ras family GTPases (pan activator, pan inhibitor, selective inhibitor, mixed activity modulator) ([1]; listed as pimethixine maleate): mixed activity
Molecule: CN1CCC(=C2c3ccccc3Sc3ccccc32)CC1 [Pimethixene Maleate]

selectivity among GTPases (RAS vs non-RAS, individual proteins) [1]: RAS activator, non-RAS inhibitor
class of modulation of Bodipy-GTP binding to Ras family GTPases (pan activator, pan inhibitor, selective inhibitor, mixed activity modulator) [1]: modulators with mixed activity
class of modulation of Bodipy-GTP binding to Ras family GTPases (pan activator, pan inhibitor, selective inhibitor, mixed activity modulator) ([1]; listed as SF1760): mixed activity
effect on GTP binding to Q61 KRas mutants [2]: activates Q61 KRas mutants
Molecule: CC(C)(C)C(=O)Nc1ccc2c(c1)C(=O)C(=O)c1ccccc1-2 [SF1670]

class of modulation of Bodipy-GTP binding to Ras family GTPases (pan activator, pan inhibitor, selective inhibitor, mixed activity modulator) [1]: pan activators
class of modulation of Bodipy-GTP binding to Ras family GTPases (pan activator, pan inhibitor, selective inhibitor, mixed activity modulator) ([1]; listed as salsalate): Pan activators
Molecule: O=C(Oc1ccccc1C(=O)O)c1ccccc1O [Salsalate]

class of modulation of Bodipy-GTP binding to Ras family GTPases (pan activator, pan inhibitor, selective inhibitor, mixed activity modulator) ([1]; hydrochloride): selective inhibitors
effect on GTP binding to Q61 KRas mutants [2]: not to Q61 KRas mutants
Molecule: CN1CCN(CCCN2c3ccccc3Sc3ccc(C(F)(F)F)cc32)CC1 [Trifluperazine Hydrochloride]
class of modulation of Bodipy-GTP binding to Ras family GTPases (pan activator, pan inhibitor, selective inhibitor, mixed activity modulator) ([1]; listed as trifluoperazine, Hydrochloride): Selective inhibitors; also recorded: weak inhibition

From patent publication US20210041441A1, “DISCOVERY OF NOVEL MOLECULES AND REPURPOSED DRUGS FOR RAS FAMILY GTPases” (UNM Rainforest Innovations, priority 2018, published 2021)
